Reference: the NIST ThermoML archive (doi:10.1016/j.fluid.2019.03.004)
± gives the expanded uncertainty stated by the source.

Settings: Liquid, Transpiration method

C=CCc1ccc(OC)cc1 [1-allyl-4-methoxybenzene]
Settings	vapor or sublimation pressure [kPa]
279.1 K	0.00378 ± 0.00025
284.1 K	0.00583 ± 0.00041
288.9 K	0.00912 ± 0.00062
293.8 K	0.01395 ± 0.00092
298.8 K	0.02153 ± 0.0014
303.7 K	0.03168 ± 0.002
308.8 K	0.04509 ± 0.0029
313.7 K	0.06571 ± 0.0042
318.2 K	0.09199 ± 0.0058
323.2 K	0.1278 ± 0.008

C=CCc1ccc(O)c(OC)c1 [2-hydroxy-5-allylanisole]
Settings	vapor or sublimation pressure [kPa]
281.1 K	0.0003 ± 2e-05
283.7 K	0.00039 ± 3e-05
289 K	0.00066 ± 5e-05
293.9 K	0.00111 ± 8e-05
298.9 K	0.00179 ± 0.00012
303.7 K	0.00287 ± 0.0002
308.7 K	0.00447 ± 0.0003
313.7 K	0.00709 ± 0.00049
318.9 K	0.01038 ± 0.00069
323.6 K	0.01507 ± 0.00099
328.6 K	0.02241 ± 0.0015
333.6 K	0.03329 ± 0.0022
338.5 K	0.04891 ± 0.0031
343.5 K	0.06869 ± 0.0043

C/C=C/c1ccc(O)c(OC)c1 [2-methoxy-4-(1E)-1-propen-1-yl-phenol]
Settings	vapor or sublimation pressure [kPa]
313.2 K	0.00241 ± 0.00017
315.2 K	0.00289 ± 0.0002
316.2 K	0.00313 ± 0.0002
318.2 K	0.00371 ± 0.00025
320.3 K	0.00449 ± 0.0003
323.2 K	0.00561 ± 0.0004
325.2 K	0.00657 ± 0.00046
328.1 K	0.00838 ± 0.00056
330.2 K	0.00975 ± 0.00066
333.2 K	0.01216 ± 0.00081
336.3 K	0.01528 ± 0.001
338.2 K	0.01783 ± 0.0012
340.2 K	0.02046 ± 0.0013
343.2 K	0.02507 ± 0.0016
345.1 K	0.02835 ± 0.0018
348.2 K	0.03558 ± 0.0023
350.1 K	0.04019 ± 0.0026
353.1 K	0.05109 ± 0.0033
356.1 K	0.06297 ± 0.004
358.1 K	0.07097 ± 0.0045

C/C=C/c1ccc(OC)cc1 [(E)-1-(4-methoxyphenyl)propene]
Settings	vapor or sublimation pressure [kPa]
296.5 K	0.00567 ± 0.00041
300.4 K	0.00774 ± 0.00054
304.4 K	0.0112 ± 0.00076
308.4 K	0.01507 ± 0.00099
312.3 K	0.02056 ± 0.0013
313.2 K	0.02178 ± 0.0014
316.4 K	0.02753 ± 0.0018
318.5 K	0.03262 ± 0.0021
321.4 K	0.04178 ± 0.0027
323.4 K	0.04533 ± 0.0029
326.4 K	0.05539 ± 0.0035
328.4 K	0.06574 ± 0.0042
331.5 K	0.08089 ± 0.0051
333.4 K	0.09361 ± 0.0059
